Measured values taken from patent publication US10919852B2, “Immunomodulator compounds” (CHEMOCENTRYX, INC., priority 2017, dated 2021).

Molecular target: human PD-L1 / Human PD-1 (Homo sapiens (Human), UniProt Q9NZQ7)
Assay: Enzyme-Linked Immunosorbent Assay (ELISA), PD-1/PD-L1 binding
Settings: plate-coated human PD-L1, biotinylated human PD-1
Summary of the method: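 Compound dilutions (1:5 series) competed with 0.3 μg/mL biotin-labelled human PD-1 for PD-L1 immobilised at […], for 1 h at 37 °C. Read-out was A450 after streptavidin-HRP and a 20 min TMB reaction, stopped with 2 N H2SO4.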

human PD-L1 / Human PD-1, sequence (Q9NZQ7 19-239): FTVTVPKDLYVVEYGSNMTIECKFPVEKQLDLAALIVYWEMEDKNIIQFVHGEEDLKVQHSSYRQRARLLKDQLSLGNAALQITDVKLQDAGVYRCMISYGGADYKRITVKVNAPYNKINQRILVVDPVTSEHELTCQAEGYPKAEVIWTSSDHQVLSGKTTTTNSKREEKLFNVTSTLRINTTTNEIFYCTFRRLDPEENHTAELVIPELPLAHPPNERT

First: C[C@@H](O)[C@H](NCc1cc(Cl)c(O[C@H]2CCc3c(-c4cccc(OCCCN5CCC(O)CC5)c4Cl)cccc32)cc1OCc1cncc(C#N)c1)C(=O)O
Second: COC(=O)[C@@H](NCc1cc(Cl)c(O[C@H]2CCc3c(-c4cccc(OCCCN5CCC(O)CC5)c4C)cccc32)cc1OCc1cncc(C#N)c1)[C@@H](C)O
The IC50 of the first is lower: under 5 nM for the first, 5 to 500 nM for the second. The first is the more potent here.

First: Cc1c(OCCCN2CCC(O)CC2)cccc1-c1cccc2c1CC[C@@H]2Oc1cc(OCc2cncc(C#N)c2)c(CN[C@@H]2CCCC[C@@H]2O)cc1Cl
Second: CCOC(=O)[C@@H](NCc1cc(Cl)c(O[C@H]2CCc3c(-c4cccc(OCCCN5CCC(O)CC5)c4C)cccc32)cc1OCc1cncc(C#N)c1)[C@@H](C)O
The IC50 of the first is lower: under 5 nM for the first, 5 to 500 nM for the second. The first is the more potent here.

Compared with Cc1c(OCCCN2CC3(CC(O)C3)C2)cccc1-c1cccc2c1CC[C@@H]2Oc1cc(OCc2cncc(C#N)c2)c(CN[C@H](C(=O)O)[C@@H](C)O)cc1Cl, N#Cc1cncc(COc2cc(O[C@H]3CCc4c(-c5cccc(OCCCN6CC7(C6)CC(F)(F)C7)c5Cl)cccc43)c(Cl)cc2CN[C@H]2CC[C@@H]2O)c1 is higher in IC50: under 5 nM for the first, 5 to 500 nM for the second. The first is the more potent here.

Compared with Cc1c(OCCCN2CCC(F)CC2)cccc1-c1cccc2c1CC[C@@H]2Oc1cc(OCc2cc(C#N)cc(C#N)c2)c(CN[C@@H]2CCC(=O)NC2)cc1Cl, N#Cc1cc(C#N)cc(COc2cc(O[C@H]3CCc4c(-c5cccc(OCCCN6CCC(F)CC6)c5Cl)cccc43)c(Cl)cc2CN[C@H]2CCC(=O)NC2)c1 is higher in IC50: under 5 nM for the first, 5 to 500 nM for the second. The first is the more potent here.

First: N#Cc1cncc(COc2cc(O[C@H]3CCc4c(-c5cccc(OCCCN6CC7(C6)CC(F)(F)C7)c5Cl)cccc43)c(Cl)cc2CN[C@@H]2CC[C@H]2O)c1
Second: CC1(F)CCN(CCCOc2cccc(-c3cccc4c3CC[C@@H]4Oc3cc(OCc4cncc(C#N)c4)c(CN[C@@H]4CCC(=O)NC4)cc3Cl)c2Cl)CC1
The IC50 of the first is lower: under 5 nM for the first, 5 to 500 nM for the second.

Compared with Cc1c(OCCCN2[C@H](C)CCC[C@@H]2C)cccc1-c1cccc2c1CC[C@@H]2Oc1cc(OCc2cc(C#N)cc(C#N)c2)c(CNC[C@H]2CCC(=O)N2)cc1Cl, Cc1c(OCCCN2CCCC[C@H]2C)cccc1-c1cccc2c1CC[C@@H]2Oc1cc(OCc2cc(C#N)cc(C#N)c2)c(CNC[C@H]2CCC(=O)N2)cc1Cl is lower in IC50: 5 to 500 nM for the first, under 5 nM for the second. The second is the more potent here.

First: Cc1c(OCCCN2CC(F)(F)C2)cccc1-c1cccc2c1CC[C@@H]2Oc1cc(OCc2cc(C#N)cc(C#N)c2)c(CNC[C@H]2CCC(=O)N2)cc1Cl
Second: Cc1c(OCCCN2CCC2)cccc1-c1cccc2c1CC[C@@H]2Oc1cc(OCc2cc(C#N)cc(C#N)c2)c(CNC[C@H]2CCC(=O)N2)cc1Cl
The IC50 of the first is higher: 5 to 500 nM for the first, under 5 nM for the second. The second is the more potent here.

CC1(F)CCN(CCCOc2cccc(-c3cccc4c3CC[C@@H]4Oc3cc(OCc4cc(C#N)cc(C#N)c4)c(CN[C@H]4CCC(=O)NC4)cc3Cl)c2Cl)CC1 and Cc1c(OCCCN2CCC(C)(F)CC2)cccc1-c1cccc2c1CC[C@@H]2Oc1cc(OCc2cc(C#N)cc(C#N)c2)c(CN[C@H]2CCC(=O)NC2)cc1Cl fall in the same range of IC50: 5 to 500 nM for the first, 5 to 500 nM for the second.

Cc1c(OCCCN2CCCCC2)cccc1-c1cccc2c1CC[C@@H]2Oc1cc(OCc2cncc(C#N)c2)c(CNC[C@H]2CCC(=O)N2)cc1Cl and Cc1c(OCCCN2CCCCC2)cccc1-c1cccc2c1CC[C@@H]2Oc1cc(OCc2cncc(C#N)c2)c(CNC[C@@H]2CCC(=O)N2)cc1Cl cannot be ordered by IC50: under 5 nM for the first, under 5 nM for the second.

First: Cc1c(OCCCN2CCC(C)(O)CC2)cccc1-c1cccc2c1CC[C@@H]2Oc1cc(OCc2cc(C#N)cc(C#N)c2)c(CNC[C@@H]2CCC(=O)N2)cc1Cl
Second: Cc1c(OCCCN2CCCCC2(C)C)cccc1-c1cccc2c1CC[C@@H]2Oc1cc(OCc2cc(C#N)cc(C#N)c2)c(CNC[C@H]2CCC(=O)N2)cc1Cl
The IC50 of the first is lower: under 5 nM for the first, 5 to 500 nM for the second. The first is the more potent here.

First: N#Cc1cncc(COc2cc(O[C@H]3CCc4c(-c5cccc(OCCCN6CCC6)c5Cl)cccc43)c(Cl)cc2CNC[C@@H]2CCC(=O)N2)c1
Second: CC1(F)CCN(CCCOc2cccc(-c3cccc4c3CC[C@@H]4Oc3cc(OCc4cncc(C#N)c4)c(CNC[C@H]4CCC(=O)N4)cc3Cl)c2Cl)CC1
The IC50 of the first is lower: under 5 nM for the first, 5 to 500 nM for the second. The first is the more potent here.

CN1CCC(COc2cccc(-c3cccc4c3CC[C@@H]4Oc3cc(OCc4cncc(C#N)c4)c(CNC[C@@H]4CCC(=O)N4)cc3Cl)c2Cl)C1 (stereo partly shown) and CCN1CCC(COc2cccc(-c3cccc4c3CC[C@@H]4Oc3cc(OCc4cncc(C#N)c4)c(CNC[C@@H]4CCC(=O)N4)cc3Cl)c2Cl)C1 (stereo partly shown) cannot be ordered by IC50: under 5 nM for the first, under 5 nM for the second.

Cc1c(OCCCN2CCC(C)(C)CC2)cccc1-c1cccc2c1CC[C@@H]2Oc1cc(OCc2cc(C#N)cc(C#N)c2)c(CN[C@H]2CCC(=O)NC2)cc1Cl and Cc1c(OCCCN2CCC(C)(F)CC2)cccc1-c1cccc2c1CC[C@@H]2Oc1cc(OCc2cc(C#N)cc(C#N)c2)c(CN[C@@H]2CCC(=O)NC2)cc1Cl fall in the same range of IC50: 5 to 500 nM for the first, 5 to 500 nM for the second.

CC1(F)CCN(CCCOc2cccc(-c3cccc4c3CC[C@@H]4Oc3cc(OCc4cncc(C#N)c4)c(CN4CC5(C4)NC(=O)NC5=O)cc3Cl)c2Cl)CC1 and CC1(F)CCN(CCCOc2cccc(-c3cccc4c3CC[C@@H]4Oc3cc(OCc4cncc(C#N)c4)c(CN4CCC5(C4)NC(=O)NC5=O)cc3Cl)c2Cl)CC1 (stereo partly shown) fall in the same range of IC50: 5 to 500 nM for the first, 5 to 500 nM for the second.

Cc1c(OCCCN2CCC(F)CC2)cccc1-c1cccc2c1CC[C@@H]2Oc1cc(OCc2cc(C#N)cc(C#N)c2)c(CN[C@H]2CCCCNC2=O)cc1Cl and Cc1c(OCCCN2CCC(F)CC2)cccc1-c1cccc2c1CC[C@@H]2Oc1cc(OCc2cc(C#N)cc(C#N)c2)c(CN[C@H]2CCCNC2=O)cc1Cl fall in the same range of IC50: 5 to 500 nM for the first, 5 to 500 nM for the second.

First: Cc1c(OCCCN2CCCC[C@@H]2C)cccc1-c1cccc2c1CC[C@@H]2Oc1cc(OCc2cc(C#N)cc(C#N)c2)c(CNC[C@H]2CCC(=O)N2)cc1Cl
Second: Cc1c(OCCCN2CCCC[C@@H]2C)cccc1-c1cccc2c1CC[C@@H]2Oc1cc(OCc2cc(C#N)cc(C#N)c2)c(CNC[C@@H]2CCC(=O)N2)cc1Cl
The IC50 of the first is higher: 5 to 500 nM for the first, under 5 nM for the second. The second is the more potent here.

CC1(F)CCN(CCCOc2cccc(-c3cccc4c3CC[C@@H]4Oc3cc(OCc4cncc(C#N)c4)c(CNC[C@@H]4CCC(=O)N4)cc3Cl)c2Cl)CC1 and CC(C)N1CCC(COc2cccc(-c3cccc4c3CC[C@@H]4Oc3cc(OCc4cncc(C#N)c4)c(CNC[C@@H]4CCC(=O)N4)cc3Cl)c2Cl)C1 (stereo partly shown) cannot be ordered by IC50: under 5 nM for the first, under 5 nM for the second.

First: Cc1c(OCCCN2CCC(C)(F)CC2)cccc1-c1cccc2c1CC[C@@H]2Oc1cc(OCc2cc(C#N)cc(C#N)c2)c(CN2CC3(C2)NC(=O)NC3=O)cc1Cl
Second: Cc1c(OCCCN2CCC(C)(F)CC2)cccc1-c1cccc2c1CC[C@@H]2Oc1cc(OCc2cc(C#N)cc(C#N)c2)c(CN2CCC3(C2)NC(=O)NC3=O)cc1Cl (stereo partly shown)
The IC50 of the first is higher: 500 to 20000 nM for the first, 5 to 500 nM for the second.

Cc1c(OCCCN2CCC(O)CC2(C)C)cccc1-c1cccc2c1CC[C@@H]2Oc1cc(OCc2cc(C#N)cc(C#N)c2)c(CN[C@H]2CCC(=O)NC2)cc1Cl (stereo partly shown) and Cc1c(OCCCN2CCCC2(C)C)cccc1-c1cccc2c1CC[C@@H]2Oc1cc(OCc2cc(C#N)cc(C#N)c2)c(CN[C@H]2CCC(=O)NC2)cc1Cl cannot be ordered by IC50: under 5 nM for the first, under 5 nM for the second.

Compared with Cc1c(OCCCN2CCCC2)cccc1-c1cccc2c1CC[C@@H]2Oc1cc(OCc2cc(C#N)cc(C#N)c2)c(CN[C@H]2CCC(=O)NC2)cc1Cl, Cc1c(OCCCN2CCC[C@@H](F)C2)cccc1-c1cccc2c1CC[C@@H]2Oc1cc(OCc2cc(C#N)cc(C#N)c2)c(CN[C@H]2CCC(=O)NC2)cc1Cl is higher in IC50: under 5 nM for the first, 5 to 500 nM for the second.

First: Cc1c(OCCCN2CCC(F)CC2)cccc1-c1cccc2c1CC[C@@H]2Oc1cc(OCc2cc(C#N)cc(C#N)c2)c(CNCC(=O)NS(C)(=O)=O)cc1Cl
Second: Cc1c(OCCCN2CCC(F)CC2)cccc1-c1cccc2c1CC[C@@H]2Oc1cc(OCc2cc(C#N)cc(C#N)c2)c(CN[C@@H]2CCC(=O)NC2=O)cc1Cl
The IC50 of the first is lower: under 5 nM for the first, 5 to 500 nM for the second.

Cc1c(OCCCN2CCC(C)(F)CC2)cccc1-c1cccc2c1CC[C@@H]2Oc1cc(OCc2cc(C#N)cc(C#N)c2)c(CN[C@H]2CCC[C@@H]2O)cc1Cl and Cc1c(OCCCN2CCC(C)(F)C2)cccc1-c1cccc2c1CC[C@@H]2Oc1cc(OCc2cc(C#N)cc(C#N)c2)c(CN[C@H]2CCC(=O)NC2)cc1Cl (stereo partly shown) fall in the same range of IC50: 5 to 500 nM for the first, 5 to 500 nM for the second.

CC(C)N1CCC(COc2cccc(-c3cccc4c3CC[C@@H]4Oc3cc(OCc4cncc(C#N)c4)c(CN[C@H]4CCC(=O)NC4)cc3Cl)c2Cl)C1 (stereo partly shown) and CCN1CCC(COc2cccc(-c3cccc4c3CC[C@@H]4Oc3cc(OCc4cncc(C#N)c4)c(CN[C@H]4CCC(=O)NC4)cc3Cl)c2Cl)C1 (stereo partly shown) cannot be ordered by IC50: under 5 nM for the first, under 5 nM for the second.

Cc1c(OCCCN2CCC(F)CC2)cccc1-c1cccc2c1C[C@H](F)[C@@H]2Oc1cc(OCc2cc(C#N)cc(C#N)c2)c(CN[C@H]2CCC(=O)NC2)cc1Cl and Cc1c(OCCCN2CCC(F)CC2)cccc1-c1cccc2c1C[C@@H](F)[C@@H]2Oc1cc(OCc2cc(C#N)cc(C#N)c2)c(CN[C@H]2CCC(=O)NC2)cc1Cl fall in the same range of IC50: 5 to 500 nM for the first, 5 to 500 nM for the second.

Cc1c(OCCCN2CCC(C)(F)CC2)cccc1-c1cccc2c1C[C@H](F)[C@@H]2Oc1cc(OCc2cc(C#N)cc(C#N)c2)c(CN[C@H]2CCC(=O)NC2)cc1Cl and Cc1c(OCCCN2CCC(C)(F)CC2)cccc1-c1cccc2c1C[C@@H](F)[C@@H]2Oc1cc(OCc2cc(C#N)cc(C#N)c2)c(CN[C@H]2CCC(=O)NC2)cc1Cl fall in the same range of IC50: 5 to 500 nM for the first, 5 to 500 nM for the second.

First: Cc1c(OCCCN2CCC(F)CC2)cccc1-c1cc(F)cc2c1CC[C@@H]2Oc1cc(OCc2cc(C#N)cc(C#N)c2)c(CN[C@H]2CCC(=O)NC2)cc1Cl
Second: Cc1c(OCCCN2CCC(F)CC2)cccc1-c1cccc2c1CC[C@@H]2Oc1cc(OCc2cc(C#N)cc(C#N)c2)c(CNC2CCNC(=O)C2)cc1Cl (stereo partly shown)
The IC50 of the first is higher: 5 to 500 nM for the first, under 5 nM for the second.

Cc1c(OCCCN2CCC(F)CC2)cccc1-c1cccc2c1CC[C@@H]2Oc1cc(OCc2cc(C#N)cc(C#N)c2)c(CN[C@@H]2CCCNC2=O)cc1Cl and Cc1c(OCCCN2CCC(F)(C#N)CC2)cccc1-c1cccc2c1CC[C@@H]2Oc1cc(OCc2cc(C#N)cc(C#N)c2)c(CN[C@H]2CCC(=O)NC2)cc1Cl fall in the same range of IC50: 5 to 500 nM for the first, 5 to 500 nM for the second.

First: Cc1c(OCCCN2C(C)(C)CCCC2(C)C)cccc1-c1cccc2c1CC[C@@H]2Oc1cc(OCc2cc(C#N)cc(C#N)c2)c(CN[C@H]2CCC(=O)NC2)cc1Cl
Second: Cc1c(OCCCN2C(C)CC2C)cccc1-c1cccc2c1CC[C@@H]2Oc1cc(OCc2cc(C#N)cc(C#N)c2)c(CN[C@H]2CCC(=O)NC2)cc1Cl (stereo partly shown)
The IC50 of the first is higher: 5 to 500 nM for the first, under 5 nM for the second. The second is the more potent here.

CCOc1cc(O[C@H]2CCc3c(-c4cccc(OCCCN5CCC(F)CC5)c4Cl)cccc32)c(Cl)cc1CN[C@@H]1CCC(=O)NC1 and CCOc1cc(O[C@H]2CCc3c(-c4cccc(OCCCN5CCC(F)CC5)c4Cl)cccc32)c(Cl)cc1CN[C@H]1CCC(=O)NC1 fall in the same range of IC50: 5 to 500 nM for the first, 5 to 500 nM for the second.
